What was measured:
[1] = transient SHIPi treatment; cited from earlier work
HSC = experiment: CRU assay (competitive repopulating units), primary and secondary; format: in vivo, mice
Description: CD45.1^+45.2^+-recipient mice were given a split dose of 550 Rads (x-ray source, RS2000-RAD source technologies, inc.) 4 hours apart for a lethal total dose of 1100 Rads. WBM (5×10^5) cells from 3AC (CD45.2) treated mice were competed with WBM cells from vehicle (CD45.1) treated mice and injected retro-orbitally into CD45.1^+45.2^+ hosts. PBMC multi-lineage reconstitution was evaluated every month post-transplant for 4 months. Transplanted mice were euthanized and serially transplanted to determine self-renewal capacity. Repopulating Units (RU) determination was previously decribed.^15 Briefly, RU=(C×CD45.2 repopulation %)/(100−CD45.2 repopulation %) where C=10^5 competitor cells.^6
Normal Repopulating units (RU) are calculated based on total number of competitor cells transplanted. Due to the expansion in the bone marrow compartment of SHIPi treated mice, we calculated the absolute RU numbers based on RU output determined by CRU assay and total BM cellularity. Total BM cellularity was determined via hemacytometer (BioRAD, TC20 cell counter) based on a total BM cells obtained from an intact set of femurs and tibias for each mouse in the study. Absolute RU=(Total BM cellularity/5×10^5)×RU.

HSC compartment = experiment: Flow cytometric quantitation of hematopoietic stem/progenitor populations and cellularity in bone marrow of treated mice; format: in vivo, C57BL/6NTac mice
Description: HSC phenotype, cell-cycle progression, G-CSF neutralization, and CXCR4 MFI determination by FACS analysis was performed on whole bone marrow (WBM) cells harvested from a tibia and femur pair obtained from SHIPi and vehicle treated 8-12 week old male C57BL/6NTac mice (Taconic). Generation of the CD45.1×CD45.2 strain utilized in the CRU assay were obtained by intercrossing C57BL6/J (CD45.2) and B6.SJL (CD45.1), as previously described.^5 The SUNY Upstate Medical University Committee for Humane Use of Animals approved all animal experiments.
In vivo administration of 3AC was previously described.^14 Briefly, 3AC is resuspended as an emulsion in 0.3% Klucel/H20. Mice were treated via intraperitoneal injection every 24 hrs for 5 days at a final concentration of 26.5 mg/kg. Analysis and transplants were performed on day 6. The 3AC derivative K118 (Soluble SHIPi) was suspended in pure H2O and heated at 100° C. for ˜15 min to allow the compound to enter solution. The delivery method was the same as with 3AC, however, the mice were treated for 5 days at a final concentration of 10 mg/kg. Vehicle cohorts for 3AC were treated with 0.3% Klucel/H20 and K118 were treated with pure H2O.
Cell isolation was performed according to method detailed in Hazen et al.^6 Briefly, WBM was flushed from both femurs and tibias per mouse with a 25-gauge needle, red blood cell lysed (eBioscience), and resuspended in staining media comprised of Hanks Buffered Saline Solution (HBSS), 2% heat inactivated fetal bovine serum (FBS), and 10 mM HEPES (Sigma). The cells harvested for the CRU assay were flushed, red blood cell lysed, washed, and resuspended in sterile phosphate buffered saline (PBS). Peripheral blood mononuclear cells (PBMC) were collected via submandibular bleed in EDTA Micorvette tubes (SARSTEDT).
All antibodies were from BD Biosciences or eBioscience. All WBM, PBMC and BM derived MSC cell populations were Fc blocked on ice for 10 min prior to antibody staining. Global reconstitution was determined by staining PBMC with CD45.1-PeCy7 and CD45.2-APC. Multi-lineage repopulation was determined by staining PBMC with CD3-FITC (145-2C11), CD19-PerCP5.5 (1D3), Mac1-PE (M1/70), Gr1-Alexa700 (RB6-8C5) and NK1.1-APC-Cy7 (PK136). The Lin−cKit+Sca1+CD34−Flk2− (LSKF34−) phenotype was utilized to determine frequency of LT-HSC, ST-HSC, and MPP; the stain was comprised of Lin-PerCP 5.5, cKit-APC (2B8), Sca1-PeCy7 (D7), CD34-FITC (RAM34), Flk2-PE (A2F10). LSKF-CXCR4 stain was used to determine surface expression of the homing marker CXCR4. All cells were washed twice with staining media, resuspended in staining media plus DAPI for dead cell exclusion, and then analyzed on a flow cytometer LSRII (BD Biosciences). All flow cytometry data was analyzed using FlowJo (9.4.3) software.

[2] = tested on: radiation-induced myeloablation; details: post radiation-induced myeloablation; cited from earlier work
[3] = cited from earlier work
[4] = tested on: radiation-induced myeloablation; experiment: Lymphocyte and WBC recovery in radiation induced bone marrow failure model; format: in vivo, C57BL/6J mice; details: 550 Rads sub-lethal irradiation, 3AC daily 7 days i.p., vs vehicle
Description: We utilized a radiation-induced hematological myeblation to create our bone marrow failure model. C57BL/6J mice (8-12 week) (The Jackson Laboratory, Bar Harbor, Me.) were sub-lethally irradiated at 550 Rads. 3AC and vehicle were administered daily for 7 days post irradiation via IP injection. PB was collected by submandibular bleeding on days 8, 15, 22 and 32 and analyzed for WBC and lymphocyte counts [Thousands per microliter (K/uL)] on a Hemavet 950S (Drew Scientific, Waterbury, Conn., USA) analysis.

LT-HSC = experiment: Cell cycle analysis of BM LT-HSC (Hoechst / Pyronin Y); format: in vivo, C57BL/6NTac mice; details: 3AC 26.5 mg/kg i.p. 5 days, vs vehicle
Description: WBM cells were stained with LSKCD34 and fixed in BD Cytofix/Cytoperm buffer for 30 minutes on ice. Fixed cells were stained with 10 μM Hoechst 33342 (HO; Sigma-Aldrich) for 45 min at 37° C. The cells were then incubated with 5 μM Pyronin Y (PY; Sigma-Aldrich) in HBSS medium with 2% FBS in the presence of 50 μM verapamil (Sigma-Aldrich) for 30 minutes at 37° C., washed, and immediately analyzed by UV laser-equipped BD LSRII analyzer.

G-CSF = G-CSF ELISA of serum of treated mice; format: in vivo; details: 3AC 26.5 mg/kg i.p. 5 days, vs vehicle
Description: Peripheral blood was collected in serum separation microvette tubes (SARSTEDT). Tubes were kept at room temperature for 2 hrs. and then spun at 2000×g for 20 min as per manufacturers recommendation. Serum levels of G-CSF in treated mice were determined using a Mouse G-CSF Quantikine Elisa kit (R&D systems).

PDGFRα+CD51+ MSC = experiment: In vivo MSC immunophenotyping by flow cytometry; set-up: species or system mice; details: 3AC 26.5 mg/kg i.p. 5 days, vs vehicle
Description: PDGFRα^+CD51^+ MSC were detected using methods and reagents as described by Iyer et al.^8 Femurs, tibias, humeri, ulnas, radii, and pelvis were dissected; the bone fragments were cleaned, cut into tiny pieces, and then crushed using a mortar and pestle. The bone chips were then washed several times in HBSS supplemented with 2% heat-inactivated FBS (HBSS/2% HI-FBS) and HBSS only, and then spun at 350×g for 5 mins. The pellet was re-suspended in 3 mg/mL type I collagenase (Worthington) and 15 μg/mL DNAase (Sigma, St. Louis, Mo.) dissolved in HBSS and incubated at 37° C. for 30 min at 110 rpm, this step was repeated twice. Following incubation, mononuclear cells were obtained using a Ficoll gradient ([…] and Histopaque-1077; Sigma, St. Louis, Mo.), and were then used for further analysis. Cells were stained with antibodies as described in Iyer et al.^8

[5] = 3AC 26.5 mg/kg i.p. 5 days, BM, vs vehicle
[6] = 3AC 26.5 mg/kg i.p. 5 days, vs vehicle

## CC(C)CCC[C@@H](C)[C@@H]1CC[C@H]2[C@@H]3CCC4C[C@H](N)CC[C@]4(C)[C@H]3CC[C@@]21C (stereo partly drawn) [3AC]
[1]
  development of pulmonary and gastrointestinal inflammation: does not induce
HSC; BM of 3AC vs vehicle donors
  CRU frequency: increases
HSC; after accounting for total BM cellularity, vs vehicle
  increase in cells with HSC capacity (absolute CRU numbers): ~6 fold
HSC; primary CRU, 3AC-treated vs vehicle-treated donors, monthly for 4 months post-transplant
  global blood cell reconstitution by BM cells of treated donors: significantly greater
HSC; primary CRU, entire post-transplant period
  lineage reconstitution (B, T, NK, myeloid): greater proportion of all major blood cell lineages analyzed
HSC; secondary CRU hosts, 1 month post-transplant
  bias or impairment in lineage output after serial transfer: did not observe a significant bias or impairment
HSC; secondary CRU, vs competing vehicle BM
  repopulation of all major lineages in secondary hosts: significantly higher
HSC compartment; [5]
  absolute number of LSK cells: significantly increases
  frequency of LSK cells: significantly increases
HSC compartment; 3AC 26.5 mg/kg i.p. 5 days, MFI by FACS
  CXCR4 surface expression on expanded HSC pool: does not cause a reduction
HSC compartment; [6]
  frequency of LT-HSC (LSKFlk2-CD34-) in BM: increases the frequency
  frequency of MPP (LSKFlk2+CD34+) in BM: increases the frequency
  frequency of ST-HSC (LSKFlk2-CD34+) in BM: increases the frequency
HSC compartment; 3AC 26.5 mg/kg i.p. 5 days, frequency combined with BM cellularity
  expansion in BM of cells with a primitive HSC phenotype: 3-4 fold
HSC compartment; 3AC 26.5 mg/kg i.p. every 24 hrs for 5 days, analysis day 6, vs vehicle
  bone marrow cellularity (BMC): significant increase
[2]
  recovery of neutrophil numbers: more rapid recovery
  recovery of platelet numbers: more rapid recovery
[3]
  aqueous solubility: poor aqueous solubility
[4]
  recovery of lymphocyte numbers: significantly improved recovery
  recovery of white blood cell (WBC) numbers: significantly improved recovery
LT-HSC
  frequency of LT-HSC in S and G2 phases of the cell cycle: significantly greater frequency
G-CSF
  G-CSF production in vivo: super-induces
G-CSF; listed as SHIPi
  G-CSF production in vivo: increases
PDGFRα+CD51+ MSC
  Pα+51+ MSC compartment size in BM: approximate doubling

Source: patent US20200129523A1, “SHIP INHIBITION TO INDUCE EXPRESSION OF GRANULOCYTE COLONY STIMULATING FACTOR IN A SUBJECT” (THE RESEARCH FOUNDATION FOR THE STATE UNIVERSITY OF NEW YORK, priority 2014, published 2020)
